Measurements reported in patent US9980943B2, “Methods of treating muscular dystrophy” (BOARD OF REGENTS OF THE NEVADA SYSTEM OF HIGHER EDUCATION, …, priority 2013, dated 2018).

Legend:
Type in all cases: cell-based, mouse
[1] = system: α7 integrin (LacZ reporter in α7βgal+/− myoblasts); assay: Myoblast α7+/LacZ integrin FDG assay (Burkin assay in myoblasts, 96-well); settings: α7+/LacZ myoblasts, 96-well
[2] = system: α7 integrin (LacZ reporter in α7+/LacZ myotubes); assay: Myotube α7 integrin FDG assay (Burkin assay in myotubes, 96-well); settings: myotubes
[3] = system: β-galactosidase in CMV-LacZ C2C12 myotubes; assay: CMV-LacZ secondary screen in C2C12 myotubes (β-Gal stabilizing assay); settings: C2C12 CMV-LacZ myotubes, fold relative to DMSO
Method in brief: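 CMV-LacZ C2C12 line (clonal, FDG-screened); myoblasts/myotubes dosed 0.5–40 μM (0.5, 1, 5, 10, 20, 40 μM); n=2 per point; β-gal stabilization read-out.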

[4] = system: β-galactosidase in CMV-LacZ C2C12 myoblasts; assay: CMV-LacZ secondary screen in C2C12 myoblasts (β-Gal stabilizing assay); settings: CMV-LacZ C2C12 myoblasts
Method in brief: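 A secondary screen identifies compounds that stabilize β-gal independently of the native promoter, using CMV-LacZ C2C12 cells. Curves span 0.5–40 μM at six levels, in duplicate.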

| SMILES | Burkin Assay in Myoblasts, signal relative to DMSO ([1]; 0.5 uM) | Burkin Assay in Myoblasts, signal relative to DMSO ([1]; 1 uM) | Burkin Assay in Myoblasts, signal relative to DMSO ([1]; 5 uM) | Burkin Assay in Myoblasts, signal relative to DMSO ([1]; 10 uM) | Burkin Assay in Myoblasts, signal relative to DMSO ([1]; 20 uM) | Burkin Assay in Myoblasts, signal relative to DMSO ([1]; 40 uM) | Burkin Assay in Myotubes, α7 integrin LacZ reporter signal relative to DMSO ([2]; 0.5 uM) | Burkin Assay in Myotubes, α7 integrin LacZ reporter signal relative to DMSO ([2]; 1 uM) | Burkin Assay in Myotubes, α7 integrin LacZ reporter signal relative to DMSO ([2]; 5 uM) | Burkin Assay in Myotubes, α7 integrin LacZ reporter signal relative to DMSO ([2]; 10 uM) | Burkin Assay in Myotubes, α7 integrin LacZ reporter signal relative to DMSO ([2]; 20 uM) | Burkin Assay in Myotubes, α7 integrin LacZ reporter signal relative to DMSO ([2]; 40 uM) | CMV-LACZ in Myotubes, signal relative to DMSO ([3]; 0.5 uM) | CMV-LACZ in Myotubes, signal relative to DMSO ([3]; 1 uM) | CMV-LACZ in Myotubes, signal relative to DMSO ([3]; 5 uM) | CMV-LACZ in Myotubes, signal relative to DMSO ([3]; 10 uM) | CMV-LACZ in Myotubes, signal relative to DMSO ([3]; 20 uM) | CMV-LACZ in Myotubes, signal relative to DMSO ([3]; 40 uM) | CMV-LACZ in Myoblasts (β-galactosidase activity relative to DMSO) ([4]; 0.5 uM) | CMV-LACZ in Myoblasts (β-galactosidase activity relative to DMSO) ([4]; 1 uM) | further results |
| --- | --- | --- | --- | --- | --- | --- | --- | --- | --- | --- | --- | --- | --- | --- | --- | --- | --- | --- | --- | --- | --- |
| N/C(=N\OC(=O)c1cccc(C(F)(F)F)c1)c1cnccn1 [MLS001098105-01] | 0.9449 | 1.029 | 0.9936 | 0.974 | 1.075 | 1.135 | 1.052 | 1.053 | 0.916 | 0.8354 | 0.8142 | 0.8459 | 0.9248 | 1.2543 | 0.9211 | 1.3183 | 0.9671 | 1.2553 | 1.4689 | 0.8054 | CMV-LACZ in Myoblasts (β-galactosidase activity relative to DMSO) ([4]; 5 uM): 0.9282; CMV-LACZ in Myoblasts (β-galactosidase activity relative to DMSO) ([4]; 10 uM): 0.9421; CMV-LACZ in Myoblasts (β-galactosidase activity relative to DMSO) ([4]; 20 uM): 1.0381; CMV-LACZ in Myoblasts (β-galactosidase activity relative to DMSO) ([4]; 40 uM): 0.8704 |
| Cn1cc(CN2CCC(C(=O)Nc3cccc(-c4cscn4)c3)CC2)cn1 [MLS001105912-01] | 1.162 | 1.057 | 1.029 | 1.246 | 0.6025 | 0.4631 | 0.9483 | 1.061 | 0.9467 | 1.1322 | 0.8299 | 1.003 | 1.1391 | 0.9618 | 0.9313 | 1.0857 | 1.1910 | 1.8130 | 1.0725 | 1.0321 | CMV-LACZ in Myoblasts (β-galactosidase activity relative to DMSO) ([4]; 5 uM): 1.0003; CMV-LACZ in Myoblasts (β-galactosidase activity relative to DMSO) ([4]; 10 uM): 0.9597; CMV-LACZ in Myoblasts (β-galactosidase activity relative to DMSO) ([4]; 20 uM): 0.5323; CMV-LACZ in Myoblasts (β-galactosidase activity relative to DMSO) ([4]; 40 uM): 0.3873 |
| CCC(CC)C(=O)Nc1c(C(=O)N2CCN(c3ccccc3)CC2)oc2ccccc12 [MLS001116079-01] | 1.03 | 1.087 | 1.025 | 0.9749 | 1.244 | 1.34 | 0.9524 | 0.9502 | 0.9559 | 0.9012 | 0.9027 | 0.9686 | 1.3543 | 0.8152 | 1.0227 | 1.1374 | 0.9063 | 1.0811 | 1.0950 | 1.0492 | CMV-LACZ in Myoblasts (β-galactosidase activity relative to DMSO) ([4]; 5 uM): 0.9306; CMV-LACZ in Myoblasts (β-galactosidase activity relative to DMSO) ([4]; 10 uM): 1.0228; CMV-LACZ in Myoblasts (β-galactosidase activity relative to DMSO) ([4]; 20 uM): 1.0448; CMV-LACZ in Myoblasts (β-galactosidase activity relative to DMSO) ([4]; 40 uM): 0.9078 |
| Cc1ccc(NS(=O)(=O)c2ccc(-c3ccc(=O)[nH]n3)o2)c(C)c1 [MLS001116535-01] | 1.092 | 1.111 | 0.998 | 0.9386 | 1.239 | 1.267 | 0.95 | 1.003 | 0.8929 | 0.8553 | 0.8993 | 0.8366 | 1.2552 | 0.8771 | 1.0648 | 1.2856 | 0.9800 | 1.0011 | 1.0167 | 1.1779 | CMV-LACZ in Myoblasts (β-galactosidase activity relative to DMSO) ([4]; 5 uM): 1.0944; CMV-LACZ in Myoblasts (β-galactosidase activity relative to DMSO) ([4]; 10 uM): 1.0580; CMV-LACZ in Myoblasts (β-galactosidase activity relative to DMSO) ([4]; 20 uM): 1.1815; CMV-LACZ in Myoblasts (β-galactosidase activity relative to DMSO) ([4]; 40 uM): 1.1263 |
| Cc1ccccc1NC(=O)c1ccc2c(O)c(S(=O)(=O)c3ccccc3)c(=O)[nH]c2c1 [MLS001122698-01] | 0.9829 | 0.8573 | 1.008 | 0.9652 | 0.9061 | 0.8389 | 0.9131 | 0.9039 | 0.9575 | 1.03 | 0.9209 | 0.8572 | 1.0019 | 1.0133 | 1.2038 | 1.1482 | 1.0340 | 1.0110 | 1.1513 | 1.1003 | CMV-LACZ in Myoblasts (β-galactosidase activity relative to DMSO) ([4]; 5 uM): 0.7759; CMV-LACZ in Myoblasts (β-galactosidase activity relative to DMSO) ([4]; 10 uM): 0.8608; CMV-LACZ in Myoblasts (β-galactosidase activity relative to DMSO) ([4]; 20 uM): 1.0404; CMV-LACZ in Myoblasts (β-galactosidase activity relative to DMSO) ([4]; 40 uM): 1.0639 |
| COc1cc(C=O)ccc1OCC(=O)Nc1ccc2c(c1)OCO2 [MLS001123876-01] | 1.041 | 0.8264 | 1.44 | 1.095 | 0.9339 | 0.8844 | 0.866 | 0.8193 | 1.1689 | 1.232 | 0.7114 | 1.003 | 0.8962 | 1.4943 | 0.9002 | 0.9279 | 0.9880 | 1.0300 | 0.8260 | 1.0263 | CMV-LACZ in Myoblasts (β-galactosidase activity relative to DMSO) ([4]; 5 uM): 0.9251; CMV-LACZ in Myoblasts (β-galactosidase activity relative to DMSO) ([4]; 10 uM): 0.9871; CMV-LACZ in Myoblasts (β-galactosidase activity relative to DMSO) ([4]; 20 uM): 0.9618; CMV-LACZ in Myoblasts (β-galactosidase activity relative to DMSO) ([4]; 40 uM): 0.7333 |
